Measurements published in patent publication US10526662B2, “FALZ for use as a target for therapies to treat cancer” (Sutter Bay Hospitals, priority 2013, dated 2020).

What was measured:
1205-Lu melanoma cells = assay: BRAF inhibitor sensitivity of 1205-Lu cells with modulated BPTF expression; format: cell-based, human; settings: for reduction in sensitivity to drug on overexpression of BPTF: 1205-Lu overexpressing BPTF; for increase in sensitivity of BPTF shRNA-expressing cells to drug: 1205-Lu, vs control shRNA-expressing cells
Procedure: (§1) Cell viability and colony formation were performed and cell cycle analysis was performed as described using common techniques in the art. Cells were treated with varying concentrations of vemurafenib for 72 hrs or dabrafenib (Chemitek, Indianapolis, Ind.) for 48 hrs or as indicated. DMSO was used as a vehicle.

BPTF [1] = assay: qRT-PCR of BPTF expression in B16-F10 cells; format: cell-based; settings: B16-F10 murine melanoma cells, mRNA level
Procedure: (§2) mRNAs were assayed using the TaqMan Gene Expression Assays in accordance with the manufacturer's instructions (Applied Biosystems). TaqMan probes for BPTF, HPRT1, CCND2, BCL-XL, TWIST1, RAB14, CEBPB, CHI3L1, DLL3, OLIG2, PDGFRA and BCL2 were purchased from Applied Biosystems (Foster City, Calif.).
(§3) Selected shRNAs cloned into the pLKO1-vector were co-transfected into 293T cells along with expression vectors containing the GAG/POL, REV and VSVG genes. Lentiviruses were harvested 48 hrs after transfection. Sub-confluent human melanoma or glioblastoma cells were infected with each harvested lentiviruses in the presence of 8 μg/ml of polybrene, and were selected in 1 μg/ml of puromycin at 48 hrs post-infection in their respective culture medium. B16-F10 cells were transfected with BPTF shRNA1, BPTF shRNA 2 or Neg shRNA vectors and stable transformants were selected with 2 ug/ml of puromycin.

[2] = tested on: B16-F10 murine melanoma cells; assay: cDNA microarray gene expression profiling of B16-F10 clones; format: cell-based
Text: Total RNA was extracted from cells using the RNeasy kit (Qiagen, Valencia, Calif.). Ten micrograms of total RNA, along with universal mouse reference RNA (Stratagene, Santa Clara, Calif.), was converted to aminoallyl-modified cDNA by oligo(dT)-primed polymerization using SuperScript II reverse transcriptase (Invitrogen), coupled to N-hydroxysuccinimidyl esters of Cy3 or Cy5 (Amersham Pharmacia, Pittsburgh, Pa.), and then hybridized to a microarray slide as described (Haqq et al., 2005). After linear normalization, log (base 2) transformation, and supervised hierarchical clustering, the resulting cluster data table was imported into the significance analysis of microarrays software package. Delta was chosen to limit the output gene list so that 5% predicted false positives would be included.

BPTF [3] = assay: qRT-PCR of BPTF expression in 1205-Lu cells; format: cell-based; settings: 1205-Lu human melanoma cells (mutant BRAF)
Procedure: as §2, §3

[4] = tested on: 1205-Lu human melanoma cells; assay: Cell cycle analysis, 1205-Lu; format: cell-based; settings: vs control shRNA vector
Procedure: as §1

[5] = tested on: 1205-Lu human melanoma cells; assay: Cell survival assay, 1205-Lu; format: cell-based
Procedure: as §1

[6] = tested on: 1205-Lu human melanoma cells; assay: Colony formation assay, 1205-Lu; format: cell-based; settings: p<0.02
Procedure: as §1

[7] = tested on: 1205-Lu human melanoma cells; assay: Apoptosis, 1205-Lu; format: cell-based; settings: p<0.02
[8] = tested on: 1205-Lu human melanoma cells; assay: Matrigel invasion assay, 1205-Lu; format: cell-based
Procedure: (§4) A Matrigel assay for tumor invasion was performed using routine techniques. For B16-F10, 1205-Lu and C8161.9 cells, insert chambers were coated with 15 μl matrigel at 6 mg/ml protein, 17 μl and 7 mg/ml for C8161.9 cells and 15 μl and 5 mg/ml for 1205-Lu and U251 cell lines.

[9] = tested on: 1205-Lu human melanoma cells; assay: Subcutaneous tumor growth of 1205-Lu cells in nude mice; format: in vivo; settings: 1205-Lu in nude mice, vs control shRNA-expressing cells
Procedure: (§5) All animal care was in accordance with institutional guidelines and a protocol that was approved by the University of California San Francisco Committee on Animal Research and California Pacific Medical Center Research Institute. Groups of 45-day-old female C57B1/6 (Charles River) were inoculated by tail vein injection with 30,000 B16-F10 BPTF stables cells. 1×10^6 1205-Lu cells were injected by tail vain in nude mice. For subcutaneous injection 1×10^6 1205-Lu, B16-F10, or C8161.9 cells and 2×10^6 U251 cells were injected, respectively.

[10] = tested on: 1205-Lu human melanoma cells; assay: Lung metastatic tumor burden after intravenous inoculation of 1205-Lu cells; format: in vivo; settings: nude mice
Procedure: as §5

BPTF [11] = assay: qRT-PCR of BPTF expression in U251 cells; format: cell-based; settings: U251 human GBM cells
Procedure: as §2, §3

U251 human GBM cells [12] = assay: Cell survival and colony formation, U251; format: cell-based
Procedure: as §1

U251 human GBM cells [13] = assay: Cell cycle analysis, U251; format: cell-based; settings: U251, p<0.01
Procedure: as §1

U251 human GBM cells [14] = assay: Apoptosis, U251; format: cell-based; settings: U251, p<0.02
U251 human GBM cells [15] = assay: Matrigel invasion assay, U251; format: cell-based
Procedure: as §4

BCL2, BCL-XL and CCND2 = assay: Expression of BCL2, BCL-XL and CCND2 in GBM cells; format: cell-based, human; settings: GBM cells (U251)
Procedure: as §2
(§6) Western blot analysis was performed. Target proteins were detected by using specific antibodies against BPTF (Bethyl Laboratories Montgomery, TX), BCL2, and GAPDH (Santa Cruz Biotechnology, Santa Cruz, Calif.), and ERK1/2, pERK1/2, CCND2, BCL-XL, p90RSK (Cell Signaling Technology, Danvers, Mass.).

[16] = tested on: phosphorylated ERK1/2 and p90RSK; assay: Western blot of phosphorylated ERK1/2 and p90RSK in GBM cells; format: cell-based, human; settings: GBM cells (U251)
Procedure: as §6

U251 human GBM cells [17] = assay: Subcutaneous U251 tumor growth in nude mice; format: in vivo; settings: subcutaneous inoculation
Procedure: as §5

[18] = B16-F10 clones stably expressing shRNA vs control vector

CC(C)(C)c1nc(-c2cccc(NS(=O)(=O)c3c(F)cccc3F)c2F)c(-c2ccnc(N)n2)s1 [dabrafenib]
reduction in sensitivity to drug on overexpression of BPTF (1205-Lu melanoma cells): 3.4 fold | increase in sensitivity of BPTF shRNA-expressing cells to drug (1205-Lu melanoma cells): 2.8 fold

CCCS(=O)(=O)Nc1ccc(F)c(C(=O)c2c[nH]c3ncc(-c4ccc(Cl)cc4)cc23)c1F [vemurafenib]
reduction in sensitivity to drug on overexpression of BPTF (1205-Lu melanoma cells): 2.5 fold | increase in sensitivity of BPTF shRNA-expressing cells to drug (1205-Lu melanoma cells): 3.2 fold

BPTF shRNA 1: shRNA targeting BPTF, TGGCTGTGATCGGTGTCAGAATTGGTACC (SEQ ID NO:3); used for the murine cell line (listed as DNA, chemistry not fully specified)
BPTF expression (qRT-PCR) (BPTF [1]): suppressed significantly

BPTF shRNA 2: shRNA targeting BPTF, GGTGATGAAGCATAATGCTGTA ATAGAAC (SEQ ID NO:4); used for the murine cell line (GGTGATGAAGCATAATGCTGTAATAGAAC; listed as DNA, chemistry not fully specified)
BPTF expression (qRT-PCR) (BPTF [1]): suppressed significantly | Bcl-xl and Ccnd2 expression ([2]; B16-F10, microarray, confirmed by qRT-PCR and western blot): downregulated | number of genes overexpressed [2, 18]: 1008 genes | number of genes with downregulated expression [2, 18]: 27 genes

BPTF shRNA 3: shRNA targeting human BPTF, ATTTAGATTCATCATAAGGCG (SEQ ID NO:5) (listed as DNA, chemistry not fully specified)
BPTF expression (BPTF [3]): significant suppression | cell cycle distribution [4]: G1/G0 cell cycle arrest and a significant reduction in S-phase | cell survival [5]: suppression | colony formation ability [6]: suppression | apoptotic index [7]: significantly increased | invasiveness into Matrigel [8]: significant decrease | subcutaneous tumor cell growth [9]: considerably suppressed | reduction in the metastatic tumor burden in the lungs [10]: 66% | BPTF expression (BPTF [11]): Stable suppression | proliferation (cell survival and colony formation) (U251 human GBM cells [12]): significantly reduced | cell cycle distribution (U251 human GBM cells [13]): significant G1/G0 cell cycle arrest | apoptosis (U251 human GBM cells [14]): induction | invasiveness (U251 human GBM cells [15]): significantly reduced | expression of BCL2, BCL-XL and CCND2 (BCL2, BCL-XL and CCND2): suppression | phosphorylated ERK1/2 and p90RSK [16]: significant suppression | U251 tumor cell growth (U251 human GBM cells [17]): highly significant reduction
